Experimental data as given in paper PMC7438494 (Communications Biology, 2020).
Where two headings read alike, the source gives them in different places.

Target: human ATP synthase (Homo sapiens, UniProt P00846+P05496)
Assay: biochemical
Assay type: biochemical

SMILES: COc1nc2ccc(Br)cc2cc1[C@@H](c1ccccc1)[C@@](O)(CCN(C)C)c1cccc2ccccc12 [BDQ, Bedaquiline]
- activity at 1 µM (Human Mito, 4th exp (18_12_26), BDQ 1 uM, read-out: Cyanide sensitive % activity): 8.67%
- activity at 2 µM (Human Mito, 4th exp (18_12_26), BDQ 2 uM, read-out: Cyanide sensitive % activity): 2.82%
- activity at 5 µM (Human Mito, 4th exp (18_12_26), BDQ 5 uM, read-out: Cyanide sensitive % activity): -2.55%
- activity at 10 µM (Human Mito, 4th exp (18_12_26), BDQ 10 uM, read-out: Cyanide sensitive % activity): 0%
- Cyanide sensitive (Human Mito, 5th exp (19), BDQ in DMSO, Bedaquiline 5e-5 μM, 60 min): 8.081 nmol/min/mg
- Cyanide sensitive (Human Mito, 5th exp (19), BDQ in DMSO, Bedaquiline 0.0005 μM, 60 min): 7.799 nmol/min/mg
- activity at 0.0005 µM (Human Mito, 5th exp (19), BDQ in DMSO, Bedaquiline 0.0005 μM, 60 min, read-out: % activity): 75.5%
- Cyanide sensitive (Human Mito, 5th exp (19), BDQ in DMSO, Bedaquiline 0.005 μM, 60 min): 7.932 nmol/min/mg
- activity at 0.005 µM (Human Mito, 5th exp (19), BDQ in DMSO, Bedaquiline 0.005 μM, 60 min, read-out: % activity): 71.9%
- Cyanide sensitive (Human Mito, 5th exp (19), BDQ in DMSO, Bedaquiline 0.1 μM, 60 min): 7.371 nmol/min/mg
- activity at 0.1 µM (Human Mito, 5th exp (19), BDQ in DMSO, Bedaquiline 0.1 μM, 60 min, read-out: % activity): 76.1%
- Cyanide sensitive (Human Mito, 5th exp (19), BDQ in DMSO, Bedaquiline 0.2 μM, 60 min): 5.1485 nmol/min/mg
- activity at 0.2 µM (Human Mito, 5th exp (19), BDQ in DMSO, Bedaquiline 0.2 μM, 60 min, read-out: % activity): 61.2%
- Cyanide sensitive (Human Mito, 5th exp (19), BDQ in DMSO, Bedaquiline 0.5 μM, 60 min): 7.123 nmol/min/mg
- activity at 0.5 µM (Human Mito, 5th exp (19), BDQ in DMSO, Bedaquiline 0.5 μM, 60 min, read-out: % activity): 73.7%
- Cyanide sensitive (Human Mito, 5th exp (19), BDQ in DMSO, Bedaquiline 0.65 μM, 60 min): 5.712 nmol/min/mg
- activity at 0.65 µM (Human Mito, 5th exp (19), BDQ in DMSO, Bedaquiline 0.65 μM, 60 min, read-out: % activity): 69.7%
- Cyanide sensitive (Human Mito, 5th exp (19), BDQ in DMSO, Bedaquiline 1 μM, 60 min): -0.04135 nmol/min/mg
- activity at 1 µM (Human Mito, 5th exp (19), BDQ in DMSO, Bedaquiline 1 μM, 60 min, read-out: % activity): 11.1%
- Cyanide sensitive (Human Mito, 5th exp (19), BDQ in DMSO, Bedaquiline 2 μM, 60 min): -0.9975 nmol/min/mg
- activity at 2 µM (Human Mito, 5th exp (19), BDQ in DMSO, Bedaquiline 2 μM, 60 min, read-out: % activity): 5%
- Cyanide sensitive (Human Mito, 5th exp (19), BDQ in DMSO, Bedaquiline 5 μM, 60 min): -2.758 nmol/min/mg
- activity at 5 µM (Human Mito, 5th exp (19), BDQ in DMSO, Bedaquiline 5 μM, 60 min, read-out: % activity): 0.69%
- Cyanide sensitive (Human Mito, 5th exp (19), BDQ in DMSO, Bedaquiline 10 μM, 60 min): -0.848 nmol/min/mg
- activity at 10 µM (Human Mito, 5th exp (19), BDQ in DMSO, Bedaquiline 10 μM, 60 min, read-out: % activity): 3.96%
- activity at 0.0005 µM (Human Mito, 5th exp (19_01_02), BDQ 0.0005 uM, read-out: Cyanide sensitive % activity): 75.5%
- activity at 0.005 µM (Human Mito, 5th exp (19_01_02), BDQ 0.005 uM, read-out: Cyanide sensitive % activity): 71.9%
- activity at 0.1 µM (Human Mito, 5th exp (19_01_02), BDQ 0.1 uM, read-out: Cyanide sensitive % activity): 76.1%
- activity at 0.2 µM (Human Mito, 5th exp (19_01_02), BDQ 0.2 uM, read-out: Cyanide sensitive % activity): 61.2%
- activity at 0.5 µM (Human Mito, 5th exp (19_01_02), BDQ 0.5 uM, read-out: Cyanide sensitive % activity): 73.7%
- activity at 0.65 µM (Human Mito, 5th exp (19_01_02), BDQ 0.65 uM, read-out: Cyanide sensitive % activity): 69.7%
- activity at 1 µM (Human Mito, 5th exp (19_01_02), BDQ 1 uM, read-out: Cyanide sensitive % activity): 11.1%
- activity at 2 µM (Human Mito, 5th exp (19_01_02), BDQ 2 uM, read-out: Cyanide sensitive % activity): 5%
- activity at 5 µM (Human Mito, 5th exp (19_01_02), BDQ 5 uM, read-out: Cyanide sensitive % activity): 0.69%
- activity at 10 µM (Human Mito, 5th exp (19_01_02), BDQ 10 uM, read-out: Cyanide sensitive % activity): 3.96%
- Cyanide sensitive % activity, Average (Human Mito, average of experiments, BDQ 5e-6 uM): 75.05%
- Cyanide sensitive % activity, Average (Human Mito, average of experiments, BDQ 5e-5 uM): 71.33%
- activity at 0.0005 µM (Human Mito, average of experiments, BDQ 0.0005 uM, read-out: Cyanide sensitive % activity, Average): 78.5%
- activity at 0.005 µM (Human Mito, average of experiments, BDQ 0.005 uM, read-out: Cyanide sensitive % activity, Average): 68%
- activity at 0.1 µM (Human Mito, average of experiments, BDQ 0.1 uM, read-out: Cyanide sensitive % activity, Average): 70.6%
- activity at 0.2 µM (Human Mito, average of experiments, BDQ 0.2 uM, read-out: Cyanide sensitive % activity, Average): 57.6%
- activity at 0.5 µM (Human Mito, average of experiments, BDQ 0.5 uM, read-out: Cyanide sensitive % activity, Average): 52.1%
- activity at 0.65 µM (Human Mito, average of experiments, BDQ 0.65 uM, read-out: Cyanide sensitive % activity, Average): 44.5%
- activity at 0.85 µM (Human Mito, average of experiments, BDQ 0.85 uM, read-out: Cyanide sensitive % activity, Average): 27.4%
- activity at 1 µM (Human Mito, average of experiments, BDQ 1 uM, read-out: Cyanide sensitive % activity, Average): 6.29%
- activity at 2 µM (Human Mito, average of experiments, BDQ 2 uM, read-out: Cyanide sensitive % activity, Average): 0.46%
- activity at 5 µM (Human Mito, average of experiments, BDQ 5 uM, read-out: Cyanide sensitive % activity, Average): -2%
- activity at 10 µM (Human Mito, average of experiments, BDQ 10 uM, read-out: Cyanide sensitive % activity, Average): 0.62%
- activity at 0.0005 µM (Human Mito, plotted duplicates, first column, BDQ 0.0005 uM, read-out: % activity): 81.5%
- activity at 0.005 µM (Human Mito, plotted duplicates, first column, BDQ 0.005 uM, read-out: % activity): 88.5%
- activity at 0.1 µM (Human Mito, plotted duplicates, first column, BDQ 0.1 uM, read-out: % activity): 71.2%
- activity at 0.2 µM (Human Mito, plotted duplicates, first column, BDQ 0.2 uM, read-out: % activity): 59.5%
- activity at 0.5 µM (Human Mito, plotted duplicates, first column, BDQ 0.5 uM, read-out: % activity): 51.2%
- activity at 0.65 µM (Human Mito, plotted duplicates, first column, BDQ 0.65 uM, read-out: % activity): 37.6%
- activity at 0.85 µM (Human Mito, plotted duplicates, first column, BDQ 0.85 uM, read-out: % activity): 33.1%
- activity at 1 µM (Human Mito, plotted duplicates, first column, BDQ 1 uM, read-out: % activity): 8.67%
- activity at 2 µM (Human Mito, plotted duplicates, first column, BDQ 2 uM, read-out: % activity): 2.82%
- activity at 5 µM (Human Mito, plotted duplicates, first column, BDQ 5 uM, read-out: % activity): -2.55%
- activity at 10 µM (Human Mito, plotted duplicates, first column, BDQ 10 uM, read-out: % activity): -2.1%
- activity at 0.0005 µM (Human Mito, plotted duplicates, second column, BDQ 0.0005 uM, read-out: % activity): 75.5%
- activity at 0.005 µM (Human Mito, plotted duplicates, second column, BDQ 0.005 uM, read-out: % activity): 71.9%
- activity at 0.1 µM (Human Mito, plotted duplicates, second column, BDQ 0.1 uM, read-out: % activity): 76.1%
- activity at 0.2 µM (Human Mito, plotted duplicates, second column, BDQ 0.2 uM, read-out: % activity): 61.2%
- activity at 0.5 µM (Human Mito, plotted duplicates, second column, BDQ 0.5 uM, read-out: % activity): 58%
- activity at 0.65 µM (Human Mito, plotted duplicates, second column, BDQ 0.65 uM, read-out: % activity): 40%
- activity at 0.85 µM (Human Mito, plotted duplicates, second column, BDQ 0.85 uM, read-out: % activity): 32.5%
- activity at 1 µM (Human Mito, plotted duplicates, second column, BDQ 1 uM, read-out: % activity): 11.1%
- activity at 2 µM (Human Mito, plotted duplicates, second column, BDQ 2 uM, read-out: % activity): 1.13%
- activity at 5 µM (Human Mito, plotted duplicates, second column, BDQ 5 uM, read-out: % activity): 0.69%
- activity at 10 µM (Human Mito, plotted duplicates, second column, BDQ 10 uM, read-out: % activity): 3.96%
- extent of inhibition of ATP synthesis of the human enzyme (in words): nearly completely
- activity at 0.0005 µM (read-out: % activity): 89.6%
- activity at 0.1 µM (read-out: % activity): 81.7%
- activity at 0.2 µM (read-out: % activity): 77.1%
- activity at 0.5 µM (read-out: % activity): 62.5%
- activity at 0.85 µM (read-out: % activity): 54%
- activity at 1 µM (read-out: % activity): 48.4%
- activity at 2 µM (read-out: % activity): 45.8%
- activity at 10 µM (read-out: % activity): 36.3%
- inhibition at 0.2 µM (read-out: % inhibition): 22.9%
- inhibition at 0.5 µM (read-out: % inhibition): 37.5%
- inhibition at 1 µM (read-out: % inhibition): 57.4%
- inhibition at 2 µM (read-out: % inhibition): 54.2%
- inhibition at 10 µM (read-out: % inhibition): 63.7%
